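Protocol summary: plate cells (96-well), add compound at 5 concentrations, incubate 48 h, interpolate endpoints linearly. Abbreviation: GI50, concentration required for 50% inhibition of growth.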 Active and inactive are the calls of the source. Rule as the data show it: active = GI50 up to about 1.1 µM and inactive = higher.
Assays:
Experiment in all cases: inhibition of tumour cell growth, NCI panel, 48 h
COLO 205 = tested on: COLO 205
EKVX = tested on: EKVX
HCT-116 = tested on: HCT-116
HL-60 = tested on: HL-60
IGROV-1 = tested on: IGROV-1
Malme-3M = tested on: Malme-3M
NCI-H226 = tested on: NCI-H226
NCI-H23 = tested on: NCI-H23
RXF 393 = tested on: RXF 393
SF-268 = tested on: SF-268
SN12C = tested on: SN12C
SNB-75 = tested on: SNB-75
SW-620 = tested on: SW-620
TK-10 = tested on: TK-10
UACC-257 = tested on: UACC-257
HCT-15 = tested on: HCT-15
RPMI-8226 = tested on: RPMI-8226

Structure (SMILES) | GI50 (COLO 205) | GI50 (EKVX) | GI50 (HCT-116) | GI50 (HL-60) | GI50 (IGROV-1) | GI50 (Malme-3M) | GI50 (NCI-H226) | GI50 (NCI-H23) | GI50 (RXF 393) | GI50 (SF-268) | GI50 (SN12C) | GI50 (SNB-75) | GI50 (SW-620) | GI50 (TK-10) | GI50 (UACC-257) | GI50 (HCT-15) [µM] | GI50 (RPMI-8226)
Cc1cccc(C(C)(C)C)c1NC(=O)CCl | > 100 µM (inactive) | > 100 µM (inactive) | > 100 µM (inactive) | > 100 µM (inactive) | > 100 µM (inactive) | > 100 µM (inactive) | > 100 µM (inactive) | > 100 µM (inactive) | > 100 µM (inactive) | > 100 µM (inactive) | > 100 µM (inactive) | > 100 µM (inactive) | > 100 µM (inactive) | > 100 µM (inactive) | > 100 µM (inactive) | – | –
CCOC(=O)Cc1c(Cc2[nH]c(C(=O)OCc3ccccc3)c(CC(=O)OCC)c2CC(=O)OCC)[nH]c(C(=O)OCc2ccccc2)c1CC(=O)OCC | > 100 µM (inactive) | – | > 100 µM (inactive) | > 100 µM (inactive) | > 100 µM (inactive) | > 100 µM (inactive) | – | – | – | > 100 µM (inactive) | > 100 µM (inactive) | > 100 µM (inactive) | > 100 µM (inactive) | – | – | > 100 | > 100 µM (inactive)
CSC(=S)N(C)NC(=O)c1cccc(C(=O)NN(C)C(=S)SC)n1 | > 100 µM (inactive) | 16.1 µM (inactive) | 36.3 µM (inactive) | 5.7 µM (inactive) | 8.2 µM (inactive) | – | 25.9 µM (inactive) | 24.2 µM (inactive) | 25.7 µM (inactive) | 6.1 µM (inactive) | 22.2 µM (inactive) | 34.3 µM (inactive) | 32.7 µM (inactive) | – | 7.48 µM (inactive) | 25.9 | 10.3 µM (inactive)
S=C1NCCN1 | > 100 µM (inactive) | > 100 µM (inactive) | > 100 µM (inactive) | > 100 µM (inactive) | > 100 µM (inactive) | > 100 µM (inactive) | > 100 µM (inactive) | > 100 µM (inactive) | – | > 100 µM (inactive) | > 100 µM (inactive) | > 100 µM (inactive) | > 100 µM (inactive) | > 100 µM (inactive) | > 100 µM (inactive) | > 100 | > 100 µM (inactive)
CSc1cc(C(C)(C)C)ccc1C(O)c1ccc(C(C)(C)C)cc1SC | 11 µM (inactive) | 6.81 µM (inactive) | 5.56 µM (inactive) | 4.91 µM (inactive) | 10.1 µM (inactive) | 14 µM (inactive) | 12.9 µM (inactive) | 8.49 µM (inactive) | 12.1 µM (inactive) | 13.3 µM (inactive) | 13.1 µM (inactive) | 12.8 µM (inactive) | 11.3 µM (inactive) | 15.2 µM (inactive) | 10.4 µM (inactive) | 7.83 | –
COc1ccc(C(=O)C(c2ccc(OC)cc2)C2(O)C(=O)Nc3ccccc32)cc1 (configuration not stated) | – | > 100 µM (inactive) | > 100 µM (inactive) | 98.6 µM (inactive) | > 100 µM (inactive) | > 100 µM (inactive) | > 100 µM (inactive) | > 100 µM (inactive) | – | > 100 µM (inactive) | > 100 µM (inactive) | 67.5 µM (inactive) | > 100 µM (inactive) | > 100 µM (inactive) | > 100 µM (inactive) | > 100 | > 100 µM (inactive)
COC(=O)C1=C(C)N(NC(=O)c2ccccc2)C(C)(O)C12CCOC2=O (configuration not stated) | > 100 µM (inactive) | > 100 µM (inactive) | > 100 µM (inactive) | > 100 µM (inactive) | > 100 µM (inactive) | 0.0475 µM (active) | > 100 µM (inactive) | > 100 µM (inactive) | – | > 100 µM (inactive) | > 100 µM (inactive) | – | > 100 µM (inactive) | > 100 µM (inactive) | > 100 µM (inactive) | > 100 | > 100 µM (inactive)
NC(=O)NCc1c(C(N)=O)ncn1Cc1ccccc1 | > 100 µM (inactive) | > 100 µM (inactive) | > 100 µM (inactive) | > 100 µM (inactive) | > 100 µM (inactive) | – | – | > 100 µM (inactive) | > 100 µM (inactive) | – | > 100 µM (inactive) | > 100 µM (inactive) | > 100 µM (inactive) | > 100 µM (inactive) | > 100 µM (inactive) | > 100 | > 100 µM (inactive)
CCc1cccc(C)c1NC(=O)C(=O)CC(=O)c1ccc(Cl)s1 | – | > 100 µM (inactive) | > 100 µM (inactive) | > 100 µM (inactive) | > 100 µM (inactive) | > 100 µM (inactive) | > 100 µM (inactive) | > 100 µM (inactive) | – | > 100 µM (inactive) | > 100 µM (inactive) | > 100 µM (inactive) | > 100 µM (inactive) | > 100 µM (inactive) | > 100 µM (inactive) | > 100 | –
CN(C)CCS/C(=N\c1ccccc1)N1CCCCC1 | 15.2 µM (inactive) | – | 19.7 µM (inactive) | 11.4 µM (inactive) | 16 µM (inactive) | 18.9 µM (inactive) | 7.41 µM (inactive) | 19.1 µM (inactive) | 18.2 µM (inactive) | 18.4 µM (inactive) | 17.7 µM (inactive) | 21.8 µM (inactive) | 17.8 µM (inactive) | 18 µM (inactive) | 14.7 µM (inactive) | 16.4 | 22.3 µM (inactive)

Reference: ChEMBL document CHEMBL1201862, “PubChem BioAssay data set” (2004)
